{
  "source": "paper PMC10376326",
  "about": "“Novel Acylselenourea Derivatives: Dual Molecules with Anticancer and Radical Scavenging Activity” (Antioxidants, 2023)",
  "key": {"DU-145 cells": {"test_system": "DU-145 cells", "experiment": "Annexin V & Dead Cell apoptosis assay", "type": "cell-based, human", "conditions": "DU-145, 10 µM, 24 h", "description": "Induction of apoptosis was assayed using Annexin V & Dead Cell assay kit and Caspase 3/7 assay kit (EMD Millipore, Darmstadt, Germany). DU-145 cells were seeded in 6-well plates at a density of 6 × 10^5 cells/well and treated either with DMSO (control) or 10 µM of compounds 1.I and 5.I and incubated for 24 h. At the end of treatment, cells were harvested and processed with appropriate staining according to the manufacturer’s protocol. For the Caspase 3/7 assay, cells were stained with 5 μL of Muse™ Caspase 3/7 working solution and incubated at 37 °C for 30 min. After incubation, […] of Muse™ Caspase 7-AAD working solution was added and the samples were incubated for another 5 min at room temperature in the dark. For Annexin V assay, cells were stained with 100 μL pf Muse™ Annexin V & Dead Cell Reagent and incubated for 20 min at room temperature in the dark prior to analysis. Samples were further analyzed on a Muse™ Cell Analyzer (Merck Millipore, Darmstadt, Germany) using Muse™ 1.4 software. Data were obtained from at least two independent experiments."}, "[1]": {"test_system": "MDA-MB-231 (breast) cancer cell line", "experiment": "MTT cell viability assay, MDA-MB-231", "type": "cell-based, human", "conditions": "Homo sapiens, MDA-MB-231, 48 h; for activity at 10 µM: read-out: Cell growth %, MDA-MB-231, 10 µM, 48 h, MTT; for activity at 50 µM: read-out: Cell growth %, MDA-MB-231, 50 µM, 48 h, MTT; for IC50: read-out: IC50 MDA-MB-231", "how_it_was_run": "(§1)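 MDA-MB-231, HTB-54 and DU-145 grown in RPMI 1640, HT-29 in McCoy's 5A (10% FBS). Output is % cell growth; IC50 determined; ≥3 experiments in quadruplicate.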"}, "[2]": {"experiment": "DPPH radical scavenging assay", "type": "biochemical", "how_it_was_run": "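Acylselenoureas at 0.003 and 0.03 mg/mL (final dilutions from DMSO stock, via methanol) mixed with DPPH• prepared at 0.04 mg/mL in methanol. Absorbance decrease at 517 nm followed 0–120 min; % scavenging calculated relative to negative control, triplicates.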"}, "[3]": {"test_system": "DU-145 (prostate) cancer cell line", "experiment": "MTT cell viability assay, DU-145", "type": "cell-based, human", "conditions": "Homo sapiens, DU-145, 48 h; for activity at 10 µM: read-out: Cell growth %, DU-145, 10 µM, 48 h, MTT; for activity at 50 µM: read-out: Cell growth %, DU-145, 50 µM, 48 h, MTT; for IC50: read-out: IC50 DU-145", "how_it_was_run": "as §1"}, "[4]": {"test_system": "HTB-54 (lung) cancer cell line", "experiment": "MTT cell viability assay, HTB-54", "type": "cell-based, human", "conditions": "for activity at 10 µM: read-out: Cell growth %, HTB-54, 10 µM, 48 h, MTT; for activity at 50 µM: read-out: Cell growth %, HTB-54, 50 µM, 48 h, MTT; for SI: IC50 (BEAS-2B)/IC50 (HTB-54)"}, "[5]": {"test_system": "non-malignant BEAS-2B lung cell line", "experiment": "MTT cell viability assay, BEAS-2B", "type": "cell-based", "conditions": "Homo sapiens, normal lung, 48 h", "description": "Cell lines were purchased from the American Type Culture Collection (ATCC). Cell lines MDA-MB-231, HTB-54, DU-145, and BEAS-2B were cultured in RPMI 1640 medium (Gibco, Thermo Fisher Scientific, Gaithersburg, MD, USA) supplemented with 10% fetal bovine serum (FBS; Gibco), 100 units/mL penicillin, and […] streptomycin (Gibco). HT-29 cell line was grown in McCoy’s 5A (Gibco), 10% FBS, 100 units/mL penicillin, and 100 μg/mL streptomycin. Cells were maintained at 37 °C and 5% CO2. The culture medium was changed every three days.\nThe cell viability of each compound was measured by MTT colorimetric assay. Each compound was dissolved in DMSO at a concentration of 0.01 M. Each compound was tested at two different concentrations (10 and 50 µM) in MDA-MB-231 (breast), HTB-54 (lung), DU-145 (prostate), and HT-29 (colon) human cancer cell lines. Serial dilutions were prepared with supplemented culture medium. […] IC50 and selectivity indexes (SI) were determined.\nBriefly, 1 × 10^4 tumor cells per well were grown in 96-well plates for 24 h. Then, these cells were incubated for 48 h with either DMSO (control) or a different concentration of each of the tested compounds. The cell viability was determined by adding 20 μL of MTT two hours and a half before the termination point. After this time, the culture medium was removed. The resulting formazan crystals were dissolved in 50 μL of DMSO, and the absorbance was measured at 570 nm. Results are expressed as % cell growth. The data were obtained from at least three independent experiments performed in quadruplicate."}, "[6]": {"conditions": "Homo sapiens, HTB-54, 48 h, read-out: IC50 HTB-54, Lung, MTT, 48 h"}},
  "note": "Read-outs that look alike come from different tables or passages of the source.",
  "data": [
    {"smiles": "CCCNC(=[Se])NC(=O)c1ccco1", "note": "[Compound 1.I, N-(propylcarbamoselenoyl)furan-2-carboxamide]", "values": [
      {"measurement": "increase of late/dead apoptotic cells with respect to the control", "setting": "DU-145 cells", "result": "about 25%"},
      {"measurement": "viable population reduced by", "setting": "DU-145 cells", "result": 37, "unit": "%"},
      {"measurement": "activity at 10 µM", "setting": "[1]", "result": "46.7 ± 5.6", "unit": "%"},
      {"measurement": "activity at 50 µM", "setting": "[1]", "result": "38 ± 7.8", "unit": "%"},
      {"measurement": "IC50", "setting": "[1]", "result": "8.8 ± 4.8", "unit": "µM"},
      {"measurement": "inhibition", "setting": "[2]; 0.003 mg/mL, 0 min", "result": 0, "unit": "%"},
      {"measurement": "inhibition", "setting": "[2]; 0.003 mg/mL, 5 min", "result": "1.1 ± 2", "unit": "%"},
      {"measurement": "inhibition", "setting": "[2]; 0.003 mg/mL, 15 min", "result": "3.5 ± 2", "unit": "%"},
      {"measurement": "inhibition", "setting": "[2]; 0.003 mg/mL, 30 min", "result": "6.6 ± 2", "unit": "%"},
      {"measurement": "inhibition", "setting": "[2]; 0.003 mg/mL, 60 min", "result": "11.7 ± 2.3", "unit": "%"},
      {"measurement": "inhibition", "setting": "[2]; 0.003 mg/mL, 90 min", "result": "15.5 ± 2.5", "unit": "%"},
      {"measurement": "inhibition", "setting": "[2]; 0.003 mg/mL, 120 min", "result": "17.5 ± 2.3", "unit": "%"},
      {"measurement": "time to reach the highest DPPH inhibition", "setting": "[2]; 0.03 mg/mL", "result": 60, "unit": "min"},
      {"measurement": "inhibition", "setting": "[2]; 0.03 mg/mL, 0 min", "result": "1.8 ± 1.5", "unit": "%"},
      {"measurement": "inhibition", "setting": "[2]; 0.03 mg/mL, 5 min", "result": "10.3 ± 4.3", "unit": "%"},
      {"measurement": "inhibition", "setting": "[2]; 0.03 mg/mL, 15 min", "result": "29.7 ± 4.1", "unit": "%"},
      {"measurement": "inhibition", "setting": "[2]; 0.03 mg/mL, 30 min", "result": "55.4 ± 5.1", "unit": "%"},
      {"measurement": "inhibition", "setting": "[2]; 0.03 mg/mL, 60 min", "result": "95.4 ± 4.1", "unit": "%"},
      {"measurement": "inhibition", "setting": "[2]; 0.03 mg/mL, 90 min", "result": "96.5 ± 0.7", "unit": "%"},
      {"measurement": "inhibition", "setting": "[2]; 0.03 mg/mL, 120 min", "result": "96.4 ± 0.6", "unit": "%"},
      {"measurement": "activity at 10 µM", "setting": "[3]", "result": "44.9 ± 4.8", "unit": "%"},
      {"measurement": "activity at 50 µM", "setting": "[3]", "result": "48.7 ± 3.1", "unit": "%"},
      {"measurement": "IC50", "setting": "[3]", "result": "9.5 ± 2.5", "unit": "µM"},
      {"measurement": "activity at 10 µM", "setting": "[4]; Homo sapiens, HTB-54, 48 h", "result": "47.1 ± 14.8", "unit": "%"},
      {"measurement": "activity at 50 µM", "setting": "[4]; Homo sapiens, HTB-54, 48 h", "result": "31.6 ± 8.2", "unit": "%"},
      {"measurement": "IC50", "setting": "[4]; [6]", "result": "< 10", "unit": "µM"},
      {"measurement": "SI", "setting": "[4]", "result": ">12.7"},
      {"measurement": "IC50", "setting": "[5]", "result": "> 100", "unit": "µM"}
    ]},
    {"smiles": "CCCNC(=[Se])NC(=O)c1ccccc1", "note": "[Compound 5.I, N-(propylcarbamoselenoyl)benzamide]", "values": [
      {"measurement": "increase of late/dead apoptotic cells with respect to the control", "setting": "DU-145 cells", "result": "about 25%"},
      {"measurement": "viable population reduced by", "setting": "DU-145 cells", "result": 37, "unit": "%"},
      {"measurement": "activity at 10 µM", "setting": "[1]", "result": "45 ± 12.5", "unit": "%"},
      {"measurement": "activity at 50 µM", "setting": "[1]", "result": "21.3 ± 11.2", "unit": "%"},
      {"measurement": "IC50", "setting": "[1]", "result": "15.5 ± 6.3", "unit": "µM"},
      {"measurement": "inhibition", "setting": "[2]; 0.003 mg/mL, 0 min", "result": "1.7 ± 1.1", "unit": "%"},
      {"measurement": "inhibition", "setting": "[2]; 0.003 mg/mL, 5 min", "result": "2.9 ± 1.1", "unit": "%"},
      {"measurement": "inhibition", "setting": "[2]; 0.003 mg/mL, 15 min", "result": "4.6 ± 1.2", "unit": "%"},
      {"measurement": "inhibition", "setting": "[2]; 0.003 mg/mL, 30 min", "result": "6.4 ± 1.3", "unit": "%"},
      {"measurement": "inhibition", "setting": "[2]; 0.003 mg/mL, 60 min", "result": "9.3 ± 1.4", "unit": "%"},
      {"measurement": "inhibition", "setting": "[2]; 0.003 mg/mL, 90 min", "result": "11.4 ± 1.5", "unit": "%"},
      {"measurement": "inhibition", "setting": "[2]; 0.003 mg/mL, 120 min", "result": "13 ± 1.6", "unit": "%"},
      {"measurement": "inhibition", "setting": "[2]; 0.03 mg/mL, 0 min", "result": "3.2 ± 2.4", "unit": "%"},
      {"measurement": "inhibition", "setting": "[2]; 0.03 mg/mL, 5 min", "result": "16.6 ± 3.1", "unit": "%"},
      {"measurement": "inhibition", "setting": "[2]; 0.03 mg/mL, 15 min", "result": "29.8 ± 3.4", "unit": "%"},
      {"measurement": "inhibition", "setting": "[2]; 0.03 mg/mL, 30 min", "result": "46.1 ± 3.9", "unit": "%"},
      {"measurement": "inhibition", "setting": "[2]; 0.03 mg/mL, 60 min", "result": "72.6 ± 6.2", "unit": "%"},
      {"measurement": "inhibition", "setting": "[2]; 0.03 mg/mL, 90 min", "result": "97.7 ± 0.6", "unit": "%"},
      {"measurement": "inhibition", "setting": "[2]; 0.03 mg/mL, 120 min", "result": "96.7 ± 2.5", "unit": "%"},
      {"measurement": "activity at 10 µM", "setting": "[3]", "result": "42.4 ± 4.9", "unit": "%"},
      {"measurement": "activity at 50 µM", "setting": "[3]", "result": "47.9 ± 3.9", "unit": "%"},
      {"measurement": "IC50", "setting": "[3]", "result": "11.5 ± 3.4", "unit": "µM"},
      {"measurement": "activity at 10 µM", "setting": "[4]; Homo sapiens, HTB-54, 48 h", "result": "36.8 ± 8.6", "unit": "%"},
      {"measurement": "activity at 50 µM", "setting": "[4]; Homo sapiens, HTB-54, 48 h", "result": "27.5 ± 6.5", "unit": "%"},
      {"measurement": "IC50", "setting": "[4]; [6]", "result": "< 10", "unit": "µM"},
      {"measurement": "SI", "setting": "[4]", "result": ">11.9"},
      {"measurement": "IC50", "setting": "[4]; read-out: IC50 HTB-54, Lung, MTT, 48 h", "result": "8.4 ± 3.9", "unit": "µM"},
      {"measurement": "IC50", "setting": "[5]", "result": "> 100", "unit": "µM"}
    ]}
  ]
}
